Reference: patent publication US5362751A, “Tracheobronchodilator using 16-substituted PGEs” (priority 1988, dated 1994)
Where two headings read alike, the source gives them in different places.

Tests used:
[1] = system: airway resistance; test: Inhibition of increase of airway resistance due to histamin in anesthetized guinea pig; type: in vivo; details: intravenous, histamin 3 μg/kg one minute later
Description: A male guinea pig weighing 300-400 g was intraperitoneally anesthetized with urethane 1.5 g/kg. The test animal was cannulated through the trachea, and then bromopanchlonium was intravenously administered at 0.3 mg/kg to make the test animal inactivate. The animal was respired using a vespirater for a small animal. The airway resistance was recorded on a recorder using a bronchospasin transducer. The administration of the test drug was made through a cannula into the jugular vein. The histamin was administered three times of each 3 μg/kg at 30 minutes intervals, and the increase of the airway resistance was determined. After the determination the test drug was intervenously administered, and then 4th administration of histamin was done after one minute. The increase of airway resistance due to histamin before and after the administration of the test drug was determined, from which inhibition rate of the increase due to the test drug was evaluated.

[2] = system: trachea of humans; test: Stimuli of trachea by spraying inhalation in humans; type: in vivo, human; details: 10 μg/ml solution sprayed at 2 ml/min, ultrasonic inhaler
Description: The strength of stimuli to trachea of humans was evaluated by actual spraying inhalation.
Each test drug was dissolved with a small amount of ethyl alcohol, to which distilled water was added to prepare a solution containing test drug at a concentration of 10 μg/ml. Four panels (K, D, T and O) were sprayed into their throats with the each test solution at a rate of 2 ml/min using an ultrasonic inhaler (NE-U10B available from Omlon K.K.), and the strength of the stimuli was observed.

[3] = system: tracheal smooth muscle; test: Tracheaectasy: inhibition of histamin-induced contraction of circular slices of guinea pig trachea in Magnus tube; details: contraction by 5.4×10^-4 M histamin, cumulative administration; for IC20: read-out: IC20 (concentration exhibiting the inhibition rate of 20%); for IC50: read-out: IC50 (concentration exhibiting the inhibition rate of 50%)
Description: A male guinea pig weighing about 300 g was beaten to death, and immediately drew the blood by cutting its arteriae femoral as pouring water. A trachea was picked out and cut lengthwise at the opposite side of tracheal smooth muscle and cut into circular slices between cartilages. The obtained seven circular slices of the trachea were tied like as a chain with a thread, and hung into Magnus tube.
After the circular slices of trachea were held for 60-90 minutes until it became stable (disappearence of convulsion), they were administered with 5.4×10^-4 M of histamin to be contracted. After the contraction reached to maximum, each test drug was cumulatively administered so as to inhibit the contraction caused by the histamin.

Row | Compound | IC20 ([3]; Cavia porcellus) [nM] | IC50 ([3]; Cavia porcellus) [nM] | other results
1 | CCCCC(F)(F)C(=O)CC[C@H]1[C@H](O)CC(=O)[C@@H]1C/C=C\CCCC(=O)O [13,14-dihydro-15-keto-16,16-difluoro-PGE2] |  |  | inhibition rate of increase of airway resistance ([1]; dose 1 μg/kg): 42%; inhibition rate of increase of airway resistance ([1]; dose 3 μg/kg): 100%
2 | CCCCC(C)C(=O)CC[C@H]1[C@H](O)CC(=O)[C@@H]1CC(=O)CCCCC(=O)OC (stereo partly shown) [Test drug 9, 13,14-dihydro-6,15-diketo-16R,S-methyl-PGE1 methyl ester] |  |  | strength of stimuli to trachea, panel D ([2]; panel D): -; strength of stimuli to trachea, panel K ([2]; panel K): -; strength of stimuli to trachea, panel O ([2]; panel O): -; strength of stimuli to trachea, panel T ([2]; panel T): -
3 | CCCCC[C@H](O)/C=C/[C@H]1[C@H](O)CC(=O)[C@@H]1C/C=C\CCCC(=O)O [Test drug 57, (z)-7-{(1R,2R,3R)-3-hydroxy-2-[(E)-(3S)-3-hydroxy-1-octenyl]-5-oxo-cyclopentyl}-hept-5-enoic acid, reference compound] |  |  | inhibition rate of increase of airway resistance ([1]; dose 3 μg/kg): 92%
4 | CCCCC(C)C(=O)CCC1C(O)CC(=O)C1CC(=O)CCCCC(=O)OC (stereo not shown) [compound 9] |  |  | IC20 [3]: 100 nM; IC50 [3]: 400 nM
5 | CCCCC(C)C(=O)CCC1C(O)CC(=O)C1CC(=O)CCCCC(=O)OCC (stereo not shown) [compound 10] |  |  | IC20 [3]: 100 nM; IC50 [3]: 600 nM
6 | CCCCC(C)(C)C(=O)CC[C@H]1[C@H](O)CC(=O)[C@@H]1CC(=O)CCCCC(=O)OCC [compound 11] |  |  | IC20 [3]: 800 nM; IC50 [3]: 4000 nM
7 | COC(=O)CCCCC(=O)CC1C(=O)CC(O)C1CCC(=O)CCCC(C)C (stereo not shown) [compound 13] |  |  | IC20 [3]: 1000 nM; IC50 [3]: 30000 nM
8 | CCOC(=O)CCCCC(=O)CC1C(=O)CC(O)C1CCC(=O)CCCC(C)C (stereo not shown) [compound 14] |  |  | IC20 [3]: 900 nM; IC50 [3]: 30000 nM
9 | CCCCCCC(=O)CC[C@H]1[C@H](O)CC(=O)[C@@H]1CC(=O)CCCCC(=O)OCC [compound 15] |  |  | IC20 [3]: 500 nM; IC50 [3]: 4000 nM
10 | CCCCCC(=O)CC[C@H]1[C@H](O)CC(=O)[C@@H]1C/C=C\CC(C)CC(=O)OC (stereo partly shown) [compound 25] |  |  | IC20 [3]: 40000 nM
11 | CCCCCC(=O)CCC1C(O)CC(=O)C1CC=CCC(C)CC(=O)OCC (stereo not shown) [compound 26] |  |  | IC20 [3]: 1000 nM; IC50 [3]: 7000 nM
12 | CCCCC(C)C(=O)CC[C@H]1[C@H](O)CC(=O)[C@@H]1C/C=C\CCCC(=O)OC (stereo partly shown) [compound 27] |  |  | IC20 [3]: 80 nM; IC50 [3]: 400 nM
13 | CCCCC(C)C(=O)CCC1C(O)CC(=O)C1CC=CCCCC(=O)OCC (stereo not shown) [compound 28] |  |  | IC20 [3]: 700 nM; IC50 [3]: 7000 nM
14 | CCCCC(C)C(=O)CC[C@H]1[C@H](O)CC(=O)[C@@H]1C/C=C\CC(C)CC(=O)OC (stereo partly shown) [compound 29] |  |  | IC20 [3]: 600 nM; IC50 [3]: 7000 nM
15 | CCCCC(C)(C)C(=O)CC[C@H]1[C@H](O)CC(=O)[C@@H]1C/C=C\CCCC(=O)OC [compound 30] |  |  | IC20 [3]: 600 nM; IC50 [3]: 2000 nM
16 | CCCCC(C)(C)C(=O)CCC1C(O)CC(=O)C1CC=CCCCC(=O)OCC (stereo not shown) [compound 31] |  |  | IC20 [3]: 400 nM; IC50 [3]: 2000 nM
17 | CCCCC(F)C(=O)CC[C@H]1[C@H](O)CC(=O)[C@@H]1C/C=C\CCCC(=O)OCC (stereo partly shown) [compound 35] | 900 | 20000 | 
18 | CCCCCC(F)C(=O)CC[C@H]1[C@H](O)CC(=O)[C@@H]1C/C=C\CCCC(=O)OC (stereo partly shown) [compound 36] | 500 | 5000 | 
19 | CCCCC(F)C(=O)CC[C@H]1[C@H](CC)CC(=O)[C@@H]1C/C=C\CCCC(=O)OCC (stereo partly shown) [compound 37] | 400 | 8000 | 
20 | CCCCCC(=O)CC[C@H]1[C@H](C)CC(=O)[C@@H]1C/C=C\CCCC(=O)OCC [compound 38] | 600 | 7000 | 
21 | CCC[C@H](C)CC(=O)CC[C@H]1[C@H](O)CC(=O)[C@@H]1C/C=C\CCCC(=O)OC [compound 39] | 3000 | 60000 | 
22 | COC(=O)CCC/C=C\C[C@H]1C(=O)C[C@@H](O)[C@@H]1CCC(=O)CCCC(C)C [compound 40] | 2000 | 40000 | 
23 | CCOC(=O)CCC/C=C\C[C@H]1C(=O)C[C@@H](O)[C@@H]1CCC(=O)CCCC(C)C [compound 41] | 4000 |  | 

Row | Compound | IC20 ([3]; Cavia porcellus) [nM] | IC50 ([3]; Cavia porcellus) [nM] | other results
24 | COCCCCCC(=O)CC[C@H]1[C@H](O)CC(=O)[C@@H]1C/C=C\CCCC(=O)OC [compound 42] | 10000 |  | 
25 | COCCCCCC(=O)CC[C@H]1[C@H](O)CC(=O)[C@@H]1C/C=C\CC(C)CC(=O)OC (stereo partly shown) [compound 44] | 10000 |  | 
26 | COCCCCC(C)(C)C(=O)CC[C@H]1[C@H](O)CC(=O)[C@@H]1C/C=C\CCCC(=O)OC [compound 45] | 2000 | 10000 | 
27 | COCCCCCC(=O)CC[C@H]1[C@H](O)CC(=O)[C@@H]1CC#CCCCC(=O)OC [compound 46] | 10000 |  | 
28 | COCCCC(=O)CC[C@H]1[C@H](O)CC(=O)[C@@H]1C/C=C\CCCC(=O)OC [compound 47] | 600 | 3000 | 
29 | CC(C)=CCCCCC(=O)CC[C@H]1[C@H](O)CC(=O)[C@@H]1C/C=C\CCCC(=O)O [compound 48] | 10000 |  | 
30 | COC(=O)CCC/C=C\C[C@H]1C(=O)C[C@@H](O)[C@@H]1CCC(=O)CCCCC=C(C)C [compound 49] | 7000 |  | 
31 | CCCCCCCC(=O)CC[C@H]1[C@H](O)CC(=O)[C@@H]1C/C=C\CCCC(=O)OC [compound 50] | 20000 |  | 
32 | CCCCCCCC(=O)CC[C@H]1[C@H](O)CC(=O)[C@@H]1C/C=C\CCCC(=O)OCC [compound 51] | 1000 | 10000 | 
33 | CCCCCCCC(=O)CC[C@H]1[C@H](C)CC(=O)[C@@H]1C/C=C\CCCC(=O)OC [compound 52] | 1000 |  | 
34 | CCCCCCCCC(=O)CC[C@H]1[C@H](O)CC(=O)[C@@H]1C/C=C\CCCC(=O)OC [compound 53] | 10000 |  | 
35 | CCCCCC(=O)/C=C/[C@H]1[C@H](O)CC(=O)[C@@H]1C/C=C\CCCC(=O)O [compound 54] | 8000 | 30000 | 
36 | CCCCC(F)C(=O)/C=C/[C@H]1[C@H](O)CC(=O)[C@@H]1C/C=C\CCCC(=O)OC (stereo partly shown) [compound 55] | 2000 | 10000 | 
37 | CCCCC[C@H](O)/C=C/[C@H]1[C@H](O)CC(=O)[C@@H]1CCCCCCC(=O)O [compound 56] | 2 | 80 | 
38 | CCCCC[C@H](O)/C=C/[C@H]1[C@H](O)CC(=O)[C@@H]1C/C=C\CCCC(=O)O [compound 57] | 10 | 100 | 
39 | CCC[C@H](C)CC(=O)CC[C@H]1[C@H](O)CC(=O)[C@@H]1C/C=C\CCCC(=O)OCC [compound 58] | 1000 | 30000 | 
40 | CCCCCCC(=O)CC[C@H]1[C@H](O)CC(=O)[C@@H]1CCCCCCC(=O)O [compound 59] | 1000 | 4000 | 
41 | CCCCC(F)C(=O)/C=C/[C@H]1[C@H](O)CC(=O)[C@@H]1C/C=C\CCCC(=O)O (stereo partly shown) [compound 60] | 3000 | 7000 | 
42 | CCC[C@H](C)CC(=O)/C=C/[C@H]1[C@H](O)CC(=O)[C@@H]1C/C=C\CCCC(=O)OCC [compound 61] | 700 | 2500 | 
43 | CCCCC(F)C(=O)CC[C@H]1[C@H](O)CC(=O)[C@@H]1CCCCCCC(=O)O (stereo partly shown) [compound 62] | 4000 |  | 
44 | CCOC(=O)CCCCC(=O)C[C@H]1C(=O)C[C@@H](O)[C@@H]1CCC(=O)CCC(C)CC (stereo partly shown) [compound 63] | 10000 |  | 
45 | CCCCC(C)C(=O)CC[C@H]1[C@H](O)CC(=O)[C@@H]1CCCCCCC(=O)OC (stereo partly shown) [compound 64] | 300 | 1000 | 
